This note sets out measurements from publication PMC7523975, “Alkaloids of Abuta panurensis Eichler: In silico and in vitro study of acetylcholinesterase inhibition, cytotoxic and immunomodulatory activities” (PLoS ONE, 2020).

The target in test [1] is T1, acetylcholinesterase (AChE, TcAChE) (Tetronarce californica, UniProt P04058). The experiment in a line: Ellman colorimetric assay with commercial enzyme, […] nm. In kind it is biochemical.
Test [2] concerns the target T1, acetylcholinesterase (AChE, TcAChE). Description: Ellman colorimetric assay with commercial enzyme, […] nm (positive control). Format: biochemical.

T1 sequence (P04058 22-564): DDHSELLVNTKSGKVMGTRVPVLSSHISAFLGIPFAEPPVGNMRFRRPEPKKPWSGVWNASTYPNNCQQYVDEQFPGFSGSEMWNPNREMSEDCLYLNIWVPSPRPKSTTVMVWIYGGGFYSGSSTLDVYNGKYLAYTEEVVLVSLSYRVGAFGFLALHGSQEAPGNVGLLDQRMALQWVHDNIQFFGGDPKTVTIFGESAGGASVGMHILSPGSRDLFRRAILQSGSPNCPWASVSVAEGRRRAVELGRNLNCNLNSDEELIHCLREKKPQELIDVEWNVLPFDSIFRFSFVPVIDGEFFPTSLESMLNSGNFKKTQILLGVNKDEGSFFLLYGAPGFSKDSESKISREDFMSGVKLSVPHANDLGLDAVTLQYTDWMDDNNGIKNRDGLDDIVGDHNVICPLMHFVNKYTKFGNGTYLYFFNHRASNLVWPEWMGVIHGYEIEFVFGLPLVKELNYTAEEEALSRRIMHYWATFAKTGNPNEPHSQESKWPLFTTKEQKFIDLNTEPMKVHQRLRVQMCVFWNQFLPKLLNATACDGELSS

For the compound `COC1=CC2CCNC3CC4(C=CC(=O)C=C4)C(=C1OC)C23` (stereo not drawn) [compound 2, stepharine], the IC50 in test [1] was found to be 61.2 µM.

Turning to `CN(CCCCNC(=O)/C=C/c1ccccc1)CCCNC(=O)/C=C/c1ccccc1` [compound 1, 5-N-methylmaytenine], half-maximal inhibition in test [1] (IC50) required 19.6 µM.

On to `CN(C)C(=O)Oc1cccc([N+](C)(C)C)c1` [neostigmine], for which, in test [2], the IC50 was found to be 3.72 µM.
